According to patent EP0025288A1, “Derivatives of monic acid, processes for their preparation, compositions containing them and their preparation” (priority 1979, dated 1981):
≈ marks a conversion by molar mass, not a printed value.

Assays:
[1] = system: Strep suis (group D) SPS11; assay: MIC, veterinary bacteria; assay type: cell-based; details: veterinary bacteria (Table 2), read-out: MIC
S typhimurium S18 = assay: MIC, veterinary bacteria; assay type: cell-based; details: veterinary bacteria (Table 2), read-out: MIC
E coli NCTC 10418 = assay: MIC, veterinary bacteria; assay type: cell-based; details: veterinary bacteria (Table 2), read-out: MIC
Strep dysgalaciae SPD1 = assay: MIC, veterinary bacteria; assay type: cell-based; details: veterinary bacteria (Table 2), read-out: MIC
M suipneumoniae Str 11 = assay: MIC, anti-mycoplasmal, Friis' broth microtiter method; assay type: cell-based; details: read-out: in vitro MIC, BROTH
[2] = Serum binding by ultrafiltration; assay type: in vitro ADME, pig; details: pig, serum, compounds at 8 mcg/ml, microbiological assay (B. subtilis ATCC 6633), read-out: % bound to pig serum (converted)
Description: Serum binding was assessed by ultrafiltration of procine serum containing compounds at 8 mcg/ml, and through an Amicon CF50A ultrafiltration cone. Separation of ultrafiltrate was achieved by centrifugation.

E coli E1 = assay: MIC, veterinary bacteria; assay type: cell-based; details: veterinary bacteria (Table 2), read-out: MIC
Bord bronchiseptica BO8 = assay: MIC, veterinary bacteria; assay type: cell-based; details: veterinary bacteria (Table 2), read-out: MIC
[3] = system: Erysipelothrix rhusiopathiae NCTC 8163; assay: MIC, veterinary bacteria; assay type: cell-based; details: NCTC8163, veterinary bacteria (Table 2), read-out: MIC
M dispar H225 = assay: MIC, anti-mycoplasmal, Friis' broth microtiter method; assay type: cell-based; details: read-out: in vitro MIC, BROTH
[4] = system: Staph aureus 152 (pen sens); assay: MIC, veterinary bacteria; assay type: cell-based; details: Staphylococcus aureus, veterinary bacteria (Table 2), read-out: MIC
Staph aureus Oxford = assay: MIC, veterinary bacteria; assay type: cell-based; details: Staphylococcus aureus, veterinary bacteria (Table 2), read-out: MIC
M pneumoniae ATCC 15492 = assay: MIC, anti-mycoplasmal, Friis' broth microtiter method; assay type: cell-based; details: read-out: in vitro MIC, BROTH
Strep uberis SPU1 = assay: MIC, veterinary bacteria; assay type: cell-based; details: veterinary bacteria (Table 2), read-out: MIC
Bord bronchisptica BO9 = assay: MIC, veterinary bacteria; assay type: cell-based; details: veterinary bacteria (Table 2), read-out: MIC
Past Haemolytica PA5 = assay: MIC, veterinary bacteria; assay type: cell-based; details: veterinary bacteria (Table 2), read-out: MIC
M fermentans MWKL4 = assay: MIC, anti-mycoplasmal, Friis' broth microtiter method; assay type: cell-based; details: read-out: in vitro MIC, BROTH
S dublin S7 = assay: MIC, veterinary bacteria; assay type: cell-based; details: veterinary bacteria (Table 2), read-out: MIC
[5] = Mean serum concentration in neonatal piglets after intramuscular or oral administration; assay type: in vivo; details: pig, 50 mg/kg; for concentration at 1 h: 60'
Description: e) Mean serum concentration in neonatal piglets of Examples 4 and 5 after intramuscular or oral administration at 50 mg/kg
Blood levels were assessed in neonatal piglets (2 to 4 animals per group and man bodyweights about 2 kg). The dose was 50 mg/kg (dose solution = 25 mg/ml in 25% ethanol). Doses were given by intramuscular injection and orally by stomach tube. Piglets were bled at intervals up to 8 and at 24 hours, and serum assayed microbiologically (B. subtilis ATCC 6633).

Past multocida PA1 = assay: MIC, veterinary bacteria; assay type: cell-based; details: veterinary bacteria (Table 2), read-out: MIC
M dispar NCTC 10125 = assay: MIC, anti-mycoplasmal, Friis' broth microtiter method; assay type: cell-based; details: read-out: in vitro MIC, BROTH
Strep agalactiae SPA1 = assay: MIC, veterinary bacteria; assay type: cell-based; details: veterinary bacteria (Table 2), read-out: MIC
M pneumoniae 427a = assay: MIC, anti-mycoplasmal, Friis' broth microtiter method; assay type: cell-based; details: read-out: in vitro MIC, BROTH
M pulmonis JB = assay: as above; assay type: cell-based; details: read-out: in vitro MIC, BROTH
[6] = system: Staph aureus B4 (pen resis); assay: MIC, veterinary bacteria; assay type: cell-based; details: Staphylococcus aureus, veterinary bacteria (Table 2), read-out: MIC
[7] = system: M suipneumoniae J2206/183b; assay: MIC, anti-mycoplasmal, Friis' broth microtiter method; assay type: cell-based; details: read-out: in vitro MIC, BROTH
Past multocida PA2 = assay: MIC, veterinary bacteria; assay type: cell-based; details: veterinary bacteria (Table 2), read-out: MIC
[8] = system: Corynebacterium pyogenes CY1; assay: MIC, veterinary bacteria; assay type: cell-based; details: veterinary bacteria (Table 2), read-out: MIC

- MIC [1]: 2.5 µg/mL (≈ 5.03 µM)
- MIC (S typhimurium S18): > 80 µg/mL
- MIC (E coli NCTC 10418): > 80 µg/mL
- MIC (Strep dysgalaciae SPD1): 0.156 µg/mL (≈ 0.314 µM)
- MIC (M suipneumoniae Str 11): 0.078 µg/mL (≈ 0.157 µM)
- fraction unbound [2]: 0.012
- MIC (E coli E1): > 80 µg/mL
- MIC (Bord bronchiseptica BO8): 40 µg/mL (≈ 80.5 µM)
- MIC [3]: 20 µg/mL (≈ 40.3 µM)
- MIC (M dispar H225): < 0.02 µg/mL
- MIC [4]: 0.156 µg/mL (≈ 0.314 µM)
- MIC (Staph aureus Oxford): 0.156 µg/mL (≈ 0.314 µM)
- MIC (M pneumoniae ATCC 15492): 0.312 µg/mL (≈ 0.628 µM)
- MIC (Strep uberis SPU1): < 0.019 µg/mL
- MIC (Bord bronchisptica BO9): 5 µg/mL (≈ 10.1 µM)
- MIC (M fermentans MWKL4): < 0.02 µg/mL
- MIC (S dublin S7): > 80 µg/mL
- concentration at 10 min ([5]; im): 9000 ng/mL
- concentration at 20 min ([5]; im): 8900 ng/mL
- concentration at 40 min ([5]; im): 10000 ng/mL
- concentration at 1 h ([5]; im): 8500 ng/mL
- concentration at 2 h ([5]; im): 3300 ng/mL
- concentration at 3 h ([5]; im): 1900 ng/mL
- concentration at 4 h ([5]; im): 1600 ng/mL
- concentration at 6 h ([5]; im): 830 ng/mL
- concentration at 8 h ([5]; im): 710 ng/mL
- concentration at 24 h ([5]; im): < 120 ng/mL
- concentration at 10 min ([5]; po): 5300 ng/mL
- concentration at 20 min ([5]; po): 5500 ng/mL
- concentration at 40 min ([5]; po): 6500 ng/mL
- concentration at 1 h ([5]; po): 5700 ng/mL
- concentration at 2 h ([5]; po): 2400 ng/mL
- concentration at 3 h ([5]; po): 1400 ng/mL
- concentration at 4 h ([5]; po): 1400 ng/mL
- concentration at 6 h ([5]; po): 770 ng/mL
- concentration at 8 h ([5]; po): 740 ng/mL
- concentration at 24 h ([5]; po): 150 ng/mL
- MIC (Past multocida PA1): 0.312 µg/mL (≈ 0.628 µM)
- MIC (M dispar NCTC 10125): 0.039 µg/mL (≈ 0.0785 µM)
- MIC (Strep agalactiae SPA1): 0.312 µg/mL (≈ 0.628 µM)
- MIC (M pneumoniae 427a): 0.312 µg/mL (≈ 0.628 µM)
- MIC (M pulmonis JB): < 0.02 µg/mL
- MIC [6]: 0.156 µg/mL (≈ 0.314 µM)
- MIC [7]: 0.078 µg/mL (≈ 0.157 µM)
- MIC (Past multocida PA2): 0.07 µg/mL (≈ 0.141 µM)
- MIC [8]: > 80 µg/mL
SMILES: CC(=CC(=O)OCCCC(=O)c1cccs1)CC1OCC(CC2OC2C(C)C(C)O)C(O)C1O (centres unmarked) [Example 4, 4(1-Thienyl-2-ylbutan-1-onyl) monate A]
- MIC (Past Haemolytica PA5): 5 µg/mL (≈ 10.1 µM)
